From patent publication US20060135480A1, “Derivatives of succinic and glutaric acids and analogs thereof useful as inhibitors of phex” (Enobia Pharma, priority 2002, published 2006)

The molecules below were run against T1, sPHEX (Homo sapiens, UniProt P78562) (assay: sPHEX inhibitor IC50 determination using a fluorogenic substrate (Abz-GFSDYK-Dnp, S3)). Conditions: fluorogenic substrate 20 μM, 100 ng sPHEX, pH 6.5.
T1 construct: The soluble form of the metallopeptidase PHEX (sPHEX) was purified to homogeneity; made in house
T1 sequence (P78562 53-749 limits assumed): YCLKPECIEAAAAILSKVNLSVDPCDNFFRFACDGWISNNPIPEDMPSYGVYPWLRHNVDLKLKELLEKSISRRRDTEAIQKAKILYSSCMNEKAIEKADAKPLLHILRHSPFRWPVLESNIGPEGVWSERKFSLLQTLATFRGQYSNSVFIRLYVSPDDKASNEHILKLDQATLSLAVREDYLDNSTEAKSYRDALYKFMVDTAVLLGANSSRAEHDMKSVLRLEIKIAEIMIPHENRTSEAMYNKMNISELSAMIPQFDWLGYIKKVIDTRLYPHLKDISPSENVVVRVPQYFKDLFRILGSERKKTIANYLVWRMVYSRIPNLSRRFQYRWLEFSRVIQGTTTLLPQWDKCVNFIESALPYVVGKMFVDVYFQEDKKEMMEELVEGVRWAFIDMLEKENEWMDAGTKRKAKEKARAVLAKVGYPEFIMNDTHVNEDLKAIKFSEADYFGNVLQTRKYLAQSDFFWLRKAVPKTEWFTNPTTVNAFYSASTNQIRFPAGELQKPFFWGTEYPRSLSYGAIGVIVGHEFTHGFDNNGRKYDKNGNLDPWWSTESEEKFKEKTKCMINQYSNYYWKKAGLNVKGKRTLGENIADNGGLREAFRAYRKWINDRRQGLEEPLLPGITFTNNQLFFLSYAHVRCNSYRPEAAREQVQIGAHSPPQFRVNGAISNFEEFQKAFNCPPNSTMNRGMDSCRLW
Format: biochemical
Description: The soluble form of the metallopeptidase PHEX (sPHEX) was purified to homogeneity according to the methods of Boileau and Crine (WO 00/50580). sPHEX quantity was measured with the Bradford assay (BioRad) using BSA as a standard.
sPHEX activity was determined using a fluorogenic substrate in which an increase of fluorescence was proportional to substrate conversion to products.
S3 was synthesized at Dr. Gilles Lajoie's laboratories (University of Western Ontario, Canada) by standard solid phase peptide synthesis. The fluorescent reaction product was excited at 320 nm to fluoresce at 420 nm. Fluorescence was recorded at 420 nm every five minutes over a one-hour period on a fluorescence plate reader (Perkin-Elmer, HTS-7000) to calculate the initial rate of the reaction. Typically, the reaction was carried out in 200 μl of buffer M (50 mM Mes(NaOH) pH 6.5, 150 mM NaCl) containing 100 ng of purified sPHEX and 20 μM of fluorigenic substrate to initiate the reaction. Enzymatic activity was determined by subtracting either the initial rate of substrate in buffer (solvolysis), or the typical reaction rate in which 5 mM EDTA was added prior to initiating the reaction.
sPHEX inhibitor IC50 determinations were done using the tested inhibitor at various concentrations coming from a serial dilution (usually ranging from 10^−3 M to 10^−12 M) in the reaction described above. IC50 values were calculated using the iterative four parameters non-linear regression formula from the GraphPad™ software (Prism).

Row | SMILES | IC50 [nM]
1 | O=C(O)C[C@H](NC(=O)CS)C(=O)N[C@@H](Cc1c[nH]c2ccccc12)C(=O)O [Example 87, N-[1-Carboxy-2-(1H-indol-3-yl)-ethyl]-3-(2-mercapto-acetylamino)-succinamic acid] | 600
2 | O=C(O)C[C@H](NC(=O)[C@@H](S)Cc1ccccc1)C(=O)N[C@@H](Cc1c[nH]c2ccccc12)C(=O)O [Example 89, N-[1-Carboxy-2-(1H-indol-3-yl)-ethyl]-3-(2-mercapto-3-phenyl-propionylamino)-succinamic acid] | 11
3 | C[C@H](S)C(=O)N[C@@H](CC(=O)O)C(=O)N[C@@H](Cc1c[nH]c2ccccc12)C(=O)O [Example 90, N-[1-Carboxy-2-(1H-indol-3-yl)-ethyl]-3-(2-mercapto-propionylamino)-succinamic acid] | 68
4 | CC(C)C[C@H](S)C(=O)N[C@@H](CC(=O)O)C(=O)N[C@@H](Cc1c[nH]c2ccccc12)C(=O)O [Example 91, N-[1-Carboxy-2-(1H-indol-3-yl)-ethyl]-3-(2-mercapto-4-methyl-pentanoylamino)-succinamic acid] | 94
5 | CC(C)[C@H](S)C(=O)N[C@@H](CC(=O)O)C(=O)N[C@@H](Cc1c[nH]c2ccccc12)C(=O)O [Example 92, N-[1-Carboxy-2-(1H-indol-3-yl)-ethyl]-3-(2-mercapto-3-methyl-butyrylamino)-succinamic acid] | 5
6 | O=C(O)C[C@H](NC(=O)[C@@H](S)CO)C(=O)N[C@@H](Cc1c[nH]c2ccccc12)C(=O)O [Example 93, N-[1-Carboxy-2-(1H-indol-3-yl)-ethyl]-3-(3-hydroxy-2-mercapto-propionylamino)-succinamic acid] | 48
7 | C[C@H](O)[C@H](S)C(=O)N[C@@H](CC(=O)O)C(=O)N[C@@H](Cc1c[nH]c2ccccc12)C(=O)O [Example 94, N-[1-Carboxy-2-(1H-indol-3-yl)-ethyl]-3-(3-hydroxy-2-mercapto-butyrylamino)-succinamic acid] | 4
8 | CCCC[C@H](S)C(=O)N[C@@H](CC(=O)O)C(=O)N[C@@H](Cc1c[nH]c2ccccc12)C(=O)O [Example 95, N-[1-Carboxy-2-(1H-indol-3-yl)-ethyl]-3-(2-mercapto-hexanoylamino)-succinamic acid] | 7
9 | O=C(O)C[C@H](NC(=O)[C@@H](S)CCc1ccccc1)C(=O)N[C@@H](Cc1c[nH]c2ccccc12)C(=O)O [Example 96, N-[1-Carboxy-2-(1H-indol-3-yl)-ethyl]-3-(2-mercapto-4-phenyl-butyrylamino)-succinamic acid] | 4
10 | O=C(O)C[C@H](NC(=O)[C@@H](S)c1ccccc1)C(=O)N[C@@H](Cc1c[nH]c2ccccc12)C(=O)O [Example 97, N-[1-Carboxy-2-(1H-indol-3-yl)-ethyl]-3-(2-mercapto-2-phenyl-acetylamino)-succinamic acid] | 3
11 | O=C(O)C[C@H](NC(=O)[C@@H](S)Cc1ccc(-c2ccccc2)cc1)C(=O)N[C@@H](Cc1c[nH]c2ccccc12)C(=O)O [Example 98, 3-(3-Biphenyl-4-yl-2-mercapto-propionylamino)-N-[1-Carboxy-2-(1H-indol-3-yl)-ethyl]-succinamic acid] | 8
12 | O=C(O)C[C@H](NC(=O)[C@@H](S)Cc1ccc(OCc2ccccc2)cc1)C(=O)N[C@@H](Cc1c[nH]c2ccccc12)C(=O)O [Example 99, 3-(3-(4-Benzyloxy-phenyl)-2-mercapto-propionylamino)-N-[1-Carboxy-2-(1H-indol-3-yl)-ethyl]-succinamic acid] | 8
13 | O=C(O)C[C@H](NC(=O)[C@@H](S)Cc1ccc(F)cc1)C(=O)N[C@@H](Cc1c[nH]c2ccccc12)C(=O)O [Example 100, N-[1-Carboxy-2-(1H-indol-3-yl)-ethyl]-3-[3-(4-fluoro-phenyl)-2-mercapto-propionylamino]-succinamic acid] | 6
14 | COc1ccc(C[C@H](S)C(=O)N[C@@H](CC(=O)O)C(=O)N[C@@H](Cc2c[nH]c3ccccc23)C(=O)O)cc1 [Example 101, N-[1-Carboxy-2-(1H-indol-3-yl)ethyl]-3-[2-mercapto-3-(methoxy-phenyl)-propionylamino]-succinamic acid] | 18
15 | O=C(O)C[C@H](NC(=O)[C@@H](S)CC1CCCCC1)C(=O)N[C@@H](Cc1c[nH]c2ccccc12)C(=O)O [Example 102, N-[1-Carboxy-2-(1H-indol-3-yl)-ethyl]-3-(3-cyclohexyl-2-mercapto-propionylamino)-succinamic acid] | 20
16 | O=C(O)C[C@H](NC(=O)[C@@H](S)Cc1c[nH]c2ccccc12)C(=O)N[C@@H](Cc1c[nH]c2ccccc12)C(=O)O [Example 103, N-[1-Carboxy-2-(1H-indol-3-yl)-ethyl]-3-[3-(1H-indol-3-yl)-2-mercapto-propionylamino]-succinamic acid] | 22
17 | O=C(O)C[C@H](NC(=O)[C@@H](S)Cc1ccc2ccccc2c1)C(=O)N[C@@H](Cc1c[nH]c2ccccc12)C(=O)O [Example 104, N-[1-Carboxy-2-(1H-indol-3-yl)-ethyl]-3-(2-mercapto-3-naphthalen-2-yl-propionylamino]-succinamic acid] | 15
18 | O=C(O)C[C@H](NC(=O)[C@@H](S)Cc1ccccc1)C(=O)N[C@@H](Cc1ccc2ccccc2c1)C(=O)O [Example 106, N-(1-Carboxy-2-naphthalen-2-yl-ethyl)-3-(2-mercapto-3-phenylpropionylamino)-succinamic acid] | 6
19 | O=C(O)C[C@H](NC(=O)[C@@H](S)Cc1ccccc1)C(=O)N[C@@H](CO)C(=O)O [Example 107, N-(1-Carboxy-2-hydroxy-ethyl)-3-(2-mercapto-3-phenyl-propionylamino)-succinamic acid] | 170
20 | O=C(O)C[C@H](NC(=O)[C@@H](S)Cc1ccccc1)C(=O)N[C@@H](Cc1ccc(O)cc1)C(=O)O [Example 108, N-[1-Carboxy-2-(4-hydroxy-phenyl)-ethyl]-3-(2-mercapto-3-phenyl-propionylamino)-succinamic acid] | 7
21 | O=C(O)C[C@H](NC(=O)[C@@H](S)Cc1ccccc1)C(=O)N[C@@H](Cc1ccccc1)C(=O)O [Example 109, N-[1-Carboxy-2-phenyl-ethyl)-3-(2-mercapto-3-phenyl-propionylamino)-succinamic acid] | 7
22 | O=C(O)C[C@H](NC(=O)[C@@H](S)Cc1ccccc1)C(=O)N[C@@H](Cc1ccc(-c2ccccc2)cc1)C(=O)O [Example 110, N-(2-Biphenyl-4-yl-1-Carboxy-ethyl)-3-(2-mercapto-3-phenyl-propionylamino)-succinamic acid] | 38
23 | O=C(O)C[C@H](NC(=O)[C@@H](S)Cc1ccccc1)C(=O)N[C@H](CO)Cc1ccccc1 [Example 111, N-(1-Benzyl-2-hydroxy-ethyl)-3-(2-mercapto-3-phenyl-propionylamino)-succinamic acid] | 90
24 | O=C(O)C[C@@H](NC(=O)[C@@H](S)Cc1ccccc1)C(=O)N[C@@H](Cc1c[nH]c2ccccc12)C(=O)O [Example 112, N-[1-Carboxy-2-(1H-indol-3-yl)-ethyl]-3-(2-mercapto-3-phenyl-propionylamino)-succinamic acid] | 15
25 | O=C(O)CC[C@H](NC(=O)[C@@H](S)Cc1ccccc1)C(=O)N[C@@H](Cc1c[nH]c2ccccc12)C(=O)O [Example 114] | 320
26 | CNC(=O)[C@H](Cc1c[nH]c2ccccc12)NC(=O)[C@H](CC(=O)O)NC(=O)CS [Example 115, N-[2-(1H-indol-3-yl)-methylcarbamoyl-ethyl]-3-(2-mercapto-acetylamino)-succinamic acid] | 1300
27 | O=C(O)C[C@H](NC(=O)[C@@H](S)Cc1ccccc1)C(=O)N[C@@H](Cc1c[nH]c2ccccc12)C(=O)N[C@@H](CO)C(=O)O [Example 116, N-[1-(1-Carboxy-2-hydroxy-ethylcarbamoyl)-2-(1H-indol-3-yl)-ethyl]-3-(2-mercapto-3-phenyl-propionylamino)-succinamic acid] | 4
28 | COC(=O)[C@H](Cc1c[nH]c2ccccc12)NC(=O)[C@H](CC(=O)O)NC(=O)CS [Example 117, N-[2-(1H-indol-3-yl)-methoxycarbonyl-etjyl]-3-(2-mercapto-acetylamino)-succinamic acid] | 2600
